Experimental data reported in ChEMBL document CHEMBL5316350, “Novel Pyrido[2',1':2,3]imidazo[4,5-c]quinoline Derivative Selectively Poisons Leishmania donovani Bisubunit Topoisomerase 1 to Inhibit the Antimony-Resistant Leishmania Infection in Vivo” (J Med Chem, 2023).
Active and inactive are the calls of the source. The calls are words filed in the database; no cut-off is given here.

Tests used:
[1] = biological target: T1, DNA topoisomerase I (Leishmania donovani (strain BPK282A1)) (UniProt E9BRC0); assay: Binding affinity to Leishmania donovani topoisomerase I assessed as DNA intercalation by measuring dislodging of bound fluorophore at 50 uM by EtBr displacement assay
T1 sequence (whole entry): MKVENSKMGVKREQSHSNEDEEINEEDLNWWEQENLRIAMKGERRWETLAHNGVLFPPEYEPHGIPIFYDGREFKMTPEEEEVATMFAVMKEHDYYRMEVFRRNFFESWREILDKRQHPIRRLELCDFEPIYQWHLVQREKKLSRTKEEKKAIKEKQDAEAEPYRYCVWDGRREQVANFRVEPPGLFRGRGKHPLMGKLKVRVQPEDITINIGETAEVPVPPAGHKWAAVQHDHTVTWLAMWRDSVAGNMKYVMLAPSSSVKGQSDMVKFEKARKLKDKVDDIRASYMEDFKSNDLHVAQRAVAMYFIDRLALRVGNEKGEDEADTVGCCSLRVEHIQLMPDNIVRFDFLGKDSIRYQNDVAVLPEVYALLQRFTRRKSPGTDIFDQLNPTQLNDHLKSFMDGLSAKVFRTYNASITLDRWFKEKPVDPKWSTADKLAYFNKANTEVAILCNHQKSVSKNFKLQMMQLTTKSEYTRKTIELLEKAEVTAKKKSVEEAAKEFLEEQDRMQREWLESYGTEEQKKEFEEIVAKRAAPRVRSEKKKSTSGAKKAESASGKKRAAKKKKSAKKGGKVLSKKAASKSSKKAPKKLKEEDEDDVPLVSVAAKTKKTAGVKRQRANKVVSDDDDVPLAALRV

[2] = biological target: T1, DNA topoisomerase I (Leishmania donovani (strain BPK282A1)); assay: Inhibition of Leishmania donovani topoisomerase I assessed as DNA intercalation using pBluscript (SK+) DNA as substrate at 50 to 200 uM incubated for 15 mins ethidium bromide staining based UV analysis; conditions: dose 50-200 µM
DNA topoisomerase I [3] = biological target: T2, DNA topoisomerase I (Leishmania donovani (strain BPK282A1), UniProt E9BRC0); assay: Inhibition of Leishmania donovani Top1 assessed as relaxation of supercoiled pBluescript SK(+) DNA measured by agarose gel electrophoresis analysis
T2 sequence (E9BRC0 whole entry): T1 sequence (whole entry)

DNA topoisomerase I [4] = biological target: T2, DNA topoisomerase I; assay: Inhibition of recombinant Top1 in Leishmania donovani Ag83 whole cell extract assessed as relaxation of supercoiled pBluescript SK(+) DNA measured by agarose gel electrophoresis analysis
[5] = biological target: T1, DNA topoisomerase I (Leishmania donovani (strain BPK282A1)); assay: Binding affinity to topoisomerase I in Leishmania donovani Ag83 whole cell lysate assessed as stabilization of cleavage complex at 50 to 100 uM measured after 30 mins; format: subcellular; conditions: dose 50-100 µM
Leishmania donovani [6] = assay: Antileishmanial activity against antimony resistant Leishmania donovani BHU575 amastigotes infected in BALB/c mouse macrophage assessed as cell viability measured after 48 hrs infection by propidium iodide staining analysis relative to control; format: functional, organism-based; conditions: BHU575, 48 h
Leishmania donovani [7] = assay: Antileishmanial activity against Leishmania donovani Ag83 promastigotes assessed as cell viability by MTT assay; format: functional, organism-based
Leishmania donovani [8] = assay: Antileishmanial activity in Leishmania donovani Ag83 promastigotes assessed as reversible of Top1cc-induced DNA breakdown by disappearance of measuring TUNEL positive cells treated for 6 to 12 hrs followed by compound removal measured after 6 to 12 hrs by confocal microscopic analysis; format: functional, organism-based; conditions: time 6-12 hrs
Leishmania donovani [9] = assay: Antileishmanial activity against antimony resistant Leishmania donovani BHU575 promastigotes assessed as cell viability by MTT assay; format: functional, organism-based
Leishmania donovani [10] = assay: Antileishmanial activity in Leishmania donovani Ag83 promastigotes assessed as Top1cc-induced DNA breakdown by measuring TUNEL positive cells by confocal microscopic analysis; format: functional, organism-based; conditions: time 6-12 hrs, TDE = time-dependent effect
[11] = Cytotoxicity against BALB/c mouse macrophage assessed as cell viability measured after 48 hrs infection by propidium iodide staining analysis relative to control; format: toxicity, cell-based; conditions: mouse macrophages
[12] = biological target: T1, DNA topoisomerase I (Leishmania donovani (strain BPK282A1)); assay: Binding affinity to antimony resistant Leishmania donovani BHU575 promastigotes recombinant topoisomerase I assessed as stabilization of cleavage complex at 50 to 100 uM measured after 30 mins; conditions: dose 50-100 µM
MCF7 = assay: Induction of cell cycle arrest in human MCF7 cells assessed as accumulation at G1 sub population measured at 5 uM upto 24 hrs by PI staining based flow cytometry; format: functional
Leishmania donovani [13] = assay: Stabilization of Leishmania donovani promastigotes Top1-DNA complex assessed as formation of SDS-KCl precipitable complex incubated for 110 mins by anti-BrdU staining based spectrophotometric analysis
Leishmania donovani [14] = assay: Antileishmanial activity against Leishmania donovani Ag83 amastigotes infected in BALB/c mouse macrophage assessed as cell viability measured after 48 hrs infection by propidium iodide staining analysis relative to control; format: functional, organism-based; conditions: Ag83, 48 h
[15] = biological target: T1, DNA topoisomerase I (Leishmania donovani (strain BPK282A1)); assay: Binding affinity to Leishmania donovani recombinant topoisomerase I assessed as stabilization of cleavage complex at 25 to 50 uM measured after 30 mins; conditions: dose 25-50 µM

## COc1cc(NS(C)(=O)=O)ccc1Nc1c2ccccc2nc2ccccc12
[1]
  Activity: Active
[2]
  inhibition: Active

## COc1cc([C@@H]2c3cc4c(cc3[C@@H](O[C@@H]3O[C@@H]5CO[C@@H](C)O[C@H]5[C@H](O)[C@H]3O)[C@H]3COC(=O)[C@H]23)OCO4)cc(OC)c1O
[2]
  inhibition: inactive

## O=[N+]([O-])c1ccccc1-c1nc2ccccc2c2nc3ccccn3c12
DNA topoisomerase I [3]
  IC50: > 10 µM

## Cc1ccc(-c2nc3ccccc3c3nc4c(C)cccn4c23)cc1
DNA topoisomerase I [3]
  IC50: 7.25 µM
DNA topoisomerase I [4]
  IC50: 15.1 µM

## Clc1ccc(-c2nc3ccccc3c3nc4ccccn4c23)cc1
DNA topoisomerase I [3]
  IC50: 8.52 µM

## Cc1cccn2c1nc1c3ccccc3nc(-c3ccccc3)c12
DNA topoisomerase I [3]
  IC50: 6.75 µM
DNA topoisomerase I [4]
  IC50: 12.8 µM

## Cc1cccn2c1nc1c3ccccc3nc(-c3cccs3)c12
DNA topoisomerase I [3]
  IC50: 7.25 µM
DNA topoisomerase I [4]
  IC50: 14.9 µM

## COc1ccc(-c2nc3ccccc3c3nc4ccccn4c23)cc1OC
DNA topoisomerase I [3]
  IC50: 5.25 µM
DNA topoisomerase I [4]
  IC50: 12 µM

## Cc1cccn2c1nc1c3ccccc3nc(-c3ccccn3)c12
DNA topoisomerase I [3]
  IC50: > 10 µM

## Cc1ccc(-c2nc3ccccc3c3nc4ccccn4c23)cc1
DNA topoisomerase I [3]
  IC50: > 10 µM

## Cc1ccc(-c2nc3ccccc3c3nc4cc(C)ccn4c23)cc1
DNA topoisomerase I [3]
  IC50: > 10 µM

## Brc1ccc2nc3c4ccccc4ncc3n2c1
DNA topoisomerase I [3]
  IC50: > 10 µM

## O=[N+]([O-])c1ccc(-c2nc3ccccc3c3nc4ccccn4c23)cc1
DNA topoisomerase I [3]
  IC50: > 10 µM

## O=[N+]([O-])c1cccc(-c2nc3ccccc3c3nc4ccccn4c23)c1
DNA topoisomerase I [3]
  IC50: > 10 µM

## Cc1ccn2c(c1)nc1c3ccccc3nc(-c3ccccc3)c12
DNA topoisomerase I [3]
  IC50: > 10 µM

## Clc1ccc2nc3c4ccccc4ncc3n2c1
DNA topoisomerase I [3]
  IC50: > 10 µM

## COc1ccc(-c2nc3ccccc3c3nc4cc(C)ccn4c23)cc1
DNA topoisomerase I [3]
  IC50: > 10 µM

## CC[C@@]1(O)C(=O)OCc2c1cc1n(c2=O)Cc2cc3ccccc3nc2-1 [CAMPTOTHECIN]
[5]
  Activity: Active
Leishmania donovani [6]
  EC50: 12.8 µM
Leishmania donovani [7]
  EC50: 3.79 µM
Leishmania donovani [8]
  Activity: inactive
Leishmania donovani [9]
  EC50: 6.58 µM
Leishmania donovani [10]
  Activity: Tde
[11]
  EC50 at 48 h: 18.3 µM
[12]
  Activity: Active
MCF7
  Activity: Active
Leishmania donovani [13]
  Activity: Active
Leishmania donovani [14]
  EC50: 7.84 µM
[15]
  Activity: Active

## c1ccc(-c2nc3ccccc3c3nc4ccccn4c23)cc1
DNA topoisomerase I [3]
  IC50: > 10 µM

## Cc1ccn2c(c1)nc1c3ccccc3ncc12
DNA topoisomerase I [3]
  IC50: > 10 µM

## c1ccc2c(c1)ncc1c2nc2ccccn21
DNA topoisomerase I [3]
  IC50: > 10 µM

## Cc1ccc2nc3c4ccccc4ncc3n2c1
DNA topoisomerase I [3]
  IC50: > 10 µM

## Cc1cccn2c1nc1c3ccccc3nc(-c3ccc(Cl)cc3)c12
DNA topoisomerase I [3]
  IC50: 5.5 µM
DNA topoisomerase I [4]
  IC50: 12.5 µM
